Biological target: T1, angiotensin converting enzyme (Oryctolagus cuniculus, UniProt P12822)
T1 construct: Rabbit lung acetone powder was extracted with 10 volumes of 50 mM sodium borate buffer; from tissue; host or cells: rabbit lung (acetone powder, borate buffer extract, 40,000 x g supernatant)
T1 sequence (P12822 34-1310): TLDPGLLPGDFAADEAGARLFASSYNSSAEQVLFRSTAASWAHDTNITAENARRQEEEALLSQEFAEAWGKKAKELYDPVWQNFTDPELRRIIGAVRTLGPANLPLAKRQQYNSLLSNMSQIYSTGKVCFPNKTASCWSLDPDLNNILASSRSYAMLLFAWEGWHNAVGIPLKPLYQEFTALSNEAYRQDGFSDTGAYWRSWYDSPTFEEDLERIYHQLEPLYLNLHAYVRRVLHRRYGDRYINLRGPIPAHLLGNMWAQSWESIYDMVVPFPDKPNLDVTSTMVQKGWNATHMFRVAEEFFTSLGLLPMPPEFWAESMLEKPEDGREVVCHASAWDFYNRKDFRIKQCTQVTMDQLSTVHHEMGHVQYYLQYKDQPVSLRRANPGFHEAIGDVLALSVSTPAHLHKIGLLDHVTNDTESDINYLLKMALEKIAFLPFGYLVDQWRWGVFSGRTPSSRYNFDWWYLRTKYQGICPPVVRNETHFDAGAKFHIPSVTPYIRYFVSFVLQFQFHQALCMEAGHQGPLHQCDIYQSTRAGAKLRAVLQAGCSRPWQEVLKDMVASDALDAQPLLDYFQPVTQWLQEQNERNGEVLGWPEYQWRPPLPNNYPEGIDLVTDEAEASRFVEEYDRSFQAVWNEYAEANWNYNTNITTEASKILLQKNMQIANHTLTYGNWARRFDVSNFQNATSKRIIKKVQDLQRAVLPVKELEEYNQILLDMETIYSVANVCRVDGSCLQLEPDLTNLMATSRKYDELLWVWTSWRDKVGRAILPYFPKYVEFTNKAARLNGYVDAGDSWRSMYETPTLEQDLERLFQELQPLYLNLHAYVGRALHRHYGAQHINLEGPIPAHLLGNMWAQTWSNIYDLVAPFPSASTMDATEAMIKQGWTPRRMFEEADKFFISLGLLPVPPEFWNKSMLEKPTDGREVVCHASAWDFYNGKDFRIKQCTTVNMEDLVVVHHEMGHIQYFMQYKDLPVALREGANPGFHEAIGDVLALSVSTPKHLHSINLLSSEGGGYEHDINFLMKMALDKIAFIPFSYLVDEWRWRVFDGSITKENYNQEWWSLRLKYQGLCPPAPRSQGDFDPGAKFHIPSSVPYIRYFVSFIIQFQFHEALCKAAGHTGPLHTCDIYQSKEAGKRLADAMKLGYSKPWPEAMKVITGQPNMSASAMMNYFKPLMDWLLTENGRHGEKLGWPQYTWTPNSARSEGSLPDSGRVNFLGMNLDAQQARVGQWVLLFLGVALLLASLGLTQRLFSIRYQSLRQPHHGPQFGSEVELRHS
Test: Inhibitory activity of angiotensin converting enzyme (rabbit lung acetone powder extract, HHL substrate, modified Cushman method)
Type: biochemical
Conditions: preincubated 30 minutes, reacted with HHL at 37° C. for 30 minutes; for inhibition at 0.0002 µM: inhibitor concentration 2 × 10^-4 μM; for inhibition at 20 pM: inhibitor concentration 2 × 10^-5 μM
Experimental: The inhibitory activity of angiotensin converting enzyme for the compounds of this invention prepared by above examples was determined as follows;
The inhibitory activity was determined by using a modification of the method of Cushman, et al. [Biochemical Pharmacology, 20, 1637(1971)] Rabbit lung acetone powder was extracted with 10 volumes of 50 mM sodium borate buffer solution(pH 8.3) by homogenization at 4° C. and centrifuged for 40 minutes at 40,000 ×g.
The supernatant which contained angiotensin converting enzyme was used for ACE assay. Hippuryl-L-histidyl-L-leucine(HHL) was used as a substrate of enzymatic reaction and the reaction was determined in 13×100 mm of test tube.
The assay mixture (total volume, 0.25 ml) consisted of 50 mM sodium borate buffer (pH 8.3), 300 mM sodium chloride, and 5 mM HHL(pH 8.3), and they were reacted by addition of 0~10 mU of rabbit lung acetone powder extract for 30 minutes at 37° C.
The volume of enzyme extract was 0.15 ml or below and the reaction solution was preincubated at 37° C. for 30 minutes without the substrate and after adding HHL reacted for 30 minutes, the reaction was terminated by addition of 0.25 ml of 1N-HCl aqueous solution.
In the case of blank assay, hydrochloric acid was added before adding the enzyme extract. Hippuric acid was extracted with 1.5 ml of ethyl acetate which was separated by centrifuging at 3,000 rpm for 10 minutes. 1.0ml of ethyl acetate layer was transferred into the test tube and evaporated at 90° C. for 1 hour on temp-block.
Hippuric acid was dissolved in 1.0 ml of 50 mM sodium borate buffer (pH 8.3) and qualified from its absorbance at 228 nm. The final concentration of inhibitor was adjusted to 2×10^-4, 2×10^-5 μM with sodium borate buffer solution(pH 8.3) and reaction solution without the substrate was preincubated for 30 minutes and after adding the substrate, it was reacted at 37° C. for 30 minutes and terminated with 1N-HCl.
The synthesized inhibitors with non-water soluble property were dissolved by ultrasonic treatment.

| SMILES | inhibition at 0.0002 µM | inhibition at 20 pM |
| --- | --- | --- |
| CCCCCCCCCCCCCCCCCCSCC(COP(=O)(O)SC[C@@H](C)C(=O)N1CCC[C@H]1C(=O)OCc1ccc([N+](=O)[O-])cc1)OC(C)=O (mixture of isomers) [Compound 7, rac-1-S-octadecyl-2-O-acetyl-thioglyceryl-3-phosphoryl captopril-p-nitrobenzyl ester] | 78% | 43% |
| CCCCCCCCCCCCCCCCCCOCC(COP(=O)(O)SC[C@@H](C)C(=O)N1CCC[C@H]1C(=O)OCc1ccc([N+](=O)[O-])cc1)OC(=O)CCCCCCCCCCCCCCC (mixture of isomers) [Compound 1, rac-1-O-octadecyl-2-O-palmitoyl-glyceryl-3-phosphorylcaptopril-p-nitrobenzyl ester] | 77% | 39% |
| CCCCCCCCCCCCCCCCCCSCC(COP(=O)(O)SC[C@@H](C)C(=O)N1CCC[C@H]1C(=O)O)OC(C)=O (mixture of isomers) [Compound 8, rac-1-S-octadecyl-2-O-acetyl-thioglyceryl-3-phosphoryl captopril] | 90% | 80% |
| CCCCCCCCCCCCCCCCCCOCC(COP(=O)(O)SC[C@@H](C)C(=O)N1CCC[C@H]1C(=O)OCc1ccc([N+](=O)[O-])cc1)OC(C)=O (mixture of isomers) [Compound 3, rac-1-O-octadecyl-2-O-acetyl-glyceryl-3-phosphoryl captopril-p-nitrobenzyl ester] | 85% | 60% |
| CCCCCCCCCCCCCCCCCCSCC(COP(=O)(O)SC[C@@H](C)C(=O)N1CCC[C@H]1C(=O)O)OC(=O)CCCCCCCCCCCCCCC (mixture of isomers) [Compound 6, rac-1-S-octadecyl-2-O-palmitoyl-thioglyceryl-3-phosphoryl captopril] | 92% | 70% |
| CCCCCCCCCCCCCCCCCCSCC(COP(=O)(O)SC[C@@H](C)C(=O)N1CCC[C@H]1C(=O)OCc1ccc([N+](=O)[O-])cc1)OC(=O)CCCCCCCCCCCCCCC (mixture of isomers) [Compound 5, rac-1-S-octadecyl-2-O-palmitoyl-thioglyceryl-3-phosphoryl captopril-p-nitrobenzyl ester] | 31% | 4% |
| CCCCCCCCCCCCCCCCCCOCC(COP(=O)(O)SC[C@@H](C)C(=O)N1CCC[C@H]1C(=O)O)OC(=O)CCCCCCCCCCCCCCC (mixture of isomers) [Compound 2, rac-1-O-octadecyl-2-O-palmitoyl-glyceryl-3-phosphoryl captopril] | 97% | 80% |
| CCCCCCCCCCCCCCCCCCOCC(COP(=O)(O)SC[C@@H](C)C(=O)N1CCC[C@H]1C(=O)O)OC(C)=O (mixture of isomers) [Compound 4, rac-1-O-octadecyl-2-O-acetyl-glyceryl-3-phosphoryl captopril] | 98% | 98% |

From patent US5358961A, “Pyrrolidine derivatives” (Jin Ro Limited, priority 1991, dated 1994)
